# Source: PMC11642016 (International Journal of Molecular Sciences, 2024)
# Where “and” joins values, the source holds several entries; their conditions need not be identical. Identical values can stand only once. Like-named read-outs stand apart in the source and are kept apart here.
# Legend:
# [1] = system: PANC-1 cells; test: CellTiter-Glo luminescent cell viability assay, PANC-1; conditions: for viability at 2.8 µM: read-out: Cell Viability (% of Control) 2.8 µM, PANC-1; for viability at 2.8 µM / viability at 8.3 µM / viability at 25 µM: mean ± SD, n = 2; for viability at 8.3 µM: read-out: Cell Viability (% of Control) 8.3 µM, PANC-1; for viability at 25 µM: read-out: Cell Viability (% of Control) 25 µM, PANC-1
# [2] = system: Fadu cells; test: CellTiter-Glo luminescent cell viability assay, Fadu; conditions: for viability at 2.8 µM: read-out: Cell Viability (% of Control) 2.8 µM, Fadu; for viability at 2.8 µM / viability at 8.3 µM / viability at 25 µM: mean ± SD, n = 2; for viability at 8.3 µM: read-out: Cell Viability (% of Control) 8.3 µM, Fadu; for viability at 25 µM: read-out: Cell Viability (% of Control) 25 µM, Fadu
# [3] = in vitro; conditions: human, HEK293T WT Cell viability (% of controll), dose–response, individual replicates
# Protocol: (§1) Primary fibroblast cultures were prepared from human skin biopsies and maintained in DMEM supplemented with 10% FBS, 1% penicillin-streptomycin, and 1% MEM Non-Essential Amino Acids Solution (Thermo Fisher Scientific). […] All cell lines were cultured in a humidified atmosphere at 37 °C and 5% CO2, passaged twice a week, and the experiments were performed on cells between passage 5 and 15. The cell lines were routinely screened for the absence of mycoplasma infection (DAPI staining).
# (§2) The effects of the synthesized compounds on cell viability were measured using the CellTiter-Glo® luminescent cell viability assay (Promega, Madison, WI, USA), according to the manufacturer’s instructions. Briefly, cells were seeded onto a flat-bottomed, white 96-well plate (BRANDplates, cat. no.: 781965)), with the following densities: PANC-1: 750 cells/well, Fadu: 2000 cells/well, primary fibroblasts: 2000 cells/well, HEK293T WT: 1000 cells/well, HEK293T CLPP^−/−: 2500 cells/well. After seeding, cells were incubated for a further 48 h before treatment. Cells were treated with the compounds for 72 h. Three concentrations (25.0 µM; 8.3 µM; 2.8 µM) were applied during the initial cell viability screening, while for the determination of dose–response curves, 1.5-fold serially diluted compound concentrations were applied (range: 26 µM–0.7 µM). After treatment, the luminescence signal was recorded using a microplate reader (BioTek Synergy 2 Multi-Mode Reader, BioTek, Winooski, VT, USA).
# (§3) Data analysis was performed using GraphPad Prism 9.5.0 software (GraphPad Software, San Diego, CA, USA). […] The dose–response curves were generated by four-parameter nonlinear regression, and the IC50 values were determined as the means ± SEM of the best-fit values of 3 independent measurements. The R^2 values were consistently above 0.93, indicating a strong fit of the model to the experimental data (Supplementary S.89). […] Dunnett’s post hoc test was applied to adjust for multiple comparisons, minimizing the likelihood of false positive results. Assumptions for ANOVA, including normality (assessed via QQ plots) and homogeneity of variance (tested using the Brown–Forsythe test), were verified. The following significance levels were applied: * p < 0.05, ** p < 0.01, *** p < 0.001, **** p < 0.0001. […] The tumor selectivity of the compounds was quantitatively characterized by the selectivity index (SI). This parameter was calculated as the ratio of the average best-fit IC50 value for primary fibroblasts and the best-fit IC50 value for the corresponding tumor cells (PANC-1 or Fadu).
# [4] = system: HEK293T WT cells; test: CellTiter-Glo cell viability assay, HEK293T WT; conditions: for HEK293T WT Cell viability (% of controll): dose–response, individual replicates
# Protocol: as §1, §2, §3
# [5] = in vitro; conditions: human, fibroblast viability in the tested concentration range, dose–response range 26–0.7 µM
# [6] = 0.7 μM, 72 h, dose–response, individual replicates
# [7] = 1 μM, 72 h, dose–response, individual replicates
# [8] = 1.5 μM, 72 h, dose–response, individual replicates
# [9] = 2.3 μM, 72 h, dose–response, individual replicates
# [10] = 3.4 μM, 72 h, dose–response, individual replicates
# [11] = 5.1 μM, 72 h, dose–response, individual replicates
# [12] = 7.7 μM, 72 h, dose–response, individual replicates
# [13] = 17.3 μM, 72 h, dose–response, individual replicates
# [14] = 26 μM, 72 h, dose–response, individual replicates
# [15] = Homo sapiens, PANC-1, 72 h, 72 h, first-set screening
# [16] = Homo sapiens, PANC-1, 72 h, 72 h, second-set screening
# [17] = Homo sapiens, FaDu, 72 h, 72 h, first-set screening
# [18] = Homo sapiens, FaDu, 72 h, 72 h, second-set screening
structure (smiles),measurement,setting,value
"Cc1ccccc1CN1C(=O)C2=C(CCN(Cc3ccccc3)C2)N2CCN=C12 [ONC201, reference compound]",PANC-1 Cell viability (% of controll),[1]; [6],92 % of controll and 97 % of controll
same,PANC-1 Cell viability (% of controll),[1]; [7],102 % of controll and 101 % of controll
same,PANC-1 Cell viability (% of controll),[1]; [8],86 % of controll and 101 % of controll
same,PANC-1 Cell viability (% of controll),[1]; [9],78 % of controll and 84 % of controll
same,PANC-1 Cell viability (% of controll),[1]; [10],57 % of controll and 60 % of controll
same,PANC-1 Cell viability (% of controll),[1]; [11],51 % of controll and 54 % of controll
same,PANC-1 Cell viability (% of controll),[1]; [12],43 % of controll and 48 % of controll
same,PANC-1 Cell viability (% of controll),[1]; [13],37 % of controll and 35 % of controll
same,PANC-1 Cell viability (% of controll),[1]; [14],32 % of controll and 29 % of controll
same,viability at 2.8 µM,[1]; [15],69 ± 1%
same,viability at 2.8 µM,[1]; [16],59 ± 9%
same,viability at 8.3 µM,[1]; [15],58 ± 1%
same,viability at 8.3 µM,[1]; [16],35 ± 2%
same,viability at 25 µM,[1]; [15],53 ± 2%
same,viability at 25 µM,[1]; [16],22 ± 2%
same,IC50,"[1]; Homo sapiens, PANC-1, 72 h, read-out: IC50 Value ± SEM PANC-1, 72 h treatment, best-fit values, n = 3",3100 ± 260 nM
same,viability at 0.7 µM,"[1]; Homo sapiens, PANC-1, 72 h, read-out: PANC-1 Cell viability (% of controll), 0.7 μM, 72 h, dose–response, individual replicates",90%
same,viability at 1 µM,"[1]; Homo sapiens, PANC-1, 72 h, read-out: PANC-1 Cell viability (% of controll), 1 μM, 72 h, dose–response, individual replicates",94%
same,viability at 1.5 µM,"[1]; Homo sapiens, PANC-1, 72 h, read-out: PANC-1 Cell viability (% of controll), 1.5 μM, 72 h, dose–response, individual replicates",85%
same,viability at 2.3 µM,"[1]; Homo sapiens, PANC-1, 72 h, read-out: PANC-1 Cell viability (% of controll), 2.3 μM, 72 h, dose–response, individual replicates",72%
same,viability at 3.4 µM,"[1]; Homo sapiens, PANC-1, 72 h, read-out: PANC-1 Cell viability (% of controll), 3.4 μM, 72 h, dose–response, individual replicates",64%
same,viability at 5.1 µM,"[1]; Homo sapiens, PANC-1, 72 h, read-out: PANC-1 Cell viability (% of controll), 5.1 μM, 72 h, dose–response, individual replicates",49%
same,viability at 7.7 µM,"[1]; Homo sapiens, PANC-1, 72 h, read-out: PANC-1 Cell viability (% of controll), 7.7 μM, 72 h, dose–response, individual replicates",46%
same,viability at 17.3 µM,"[1]; Homo sapiens, PANC-1, 72 h, read-out: PANC-1 Cell viability (% of controll), 17.3 μM, 72 h, dose–response, individual replicates",34%
same,viability at 26 µM,"[1]; Homo sapiens, PANC-1, 72 h, read-out: PANC-1 Cell viability (% of controll), 26 μM, 72 h, dose–response, individual replicates",33%
same,IC50,"[1]; Homo sapiens, PANC-1, read-out: PANC-1 IC50 values, Mean, mean of independently fitted replicate IC50 values (Supplement S.6)",3050 nM
same,IC50,"[1]; Homo sapiens, PANC-1, read-out: PANC-1 IC50 values, individual replicates n1-n3, IC50 independently determined for each replicate measurement (Supplement S.6)",3220 nM
same,IC50,"[1]; read-out: PANC-1 IC50 values, individual replicates n1-n3, IC50 independently determined for each replicate measurement (Supplement S.6)",3140 nM and 2780 nM
same,Fadu Cell viability (% of controll),[2]; [6],93 % of controll
same,Fadu Cell viability (% of controll),[2]; [7],86 % of controll and 77 % of controll
same,Fadu Cell viability (% of controll),[2]; [8],59 % of controll and 51 % of controll
same,Fadu Cell viability (% of controll),[2]; [9],55 % of controll and 30 % of controll
same,Fadu Cell viability (% of controll),[2]; [10],26 % of controll
same,Fadu Cell viability (% of controll),[2]; [11],26 % of controll
same,Fadu Cell viability (% of controll),[2]; [12],28 % of controll and 27 % of controll
same,Fadu Cell viability (% of controll),[2]; [13],23 % of controll and 24 % of controll
same,Fadu Cell viability (% of controll),[2]; [14],22 % of controll and 24 % of controll
same,viability at 2.8 µM,[2]; [17],31 ± 1%
same,viability at 2.8 µM,[2]; [18],38 ± 5%
same,viability at 8.3 µM,[2]; [17],29 ± 1%
same,viability at 8.3 µM,[2]; [18],31 ± 2%
same,viability at 25 µM,[2]; [17],27 ± 1%
same,viability at 25 µM,[2]; [18],25 ± 3%
same,viability at 0.7 µM,"[2]; Homo sapiens, FaDu, 72 h, read-out: Fadu Cell viability (% of controll), 0.7 μM, 72 h, dose–response, individual replicates",94%
same,viability at 1 µM,"[2]; Homo sapiens, FaDu, 72 h, read-out: Fadu Cell viability (% of controll), 1 μM, 72 h, dose–response, individual replicates",85%
same,viability at 1.5 µM,"[2]; Homo sapiens, FaDu, 72 h, read-out: Fadu Cell viability (% of controll), 1.5 μM, 72 h, dose–response, individual replicates",66%
same,viability at 3.4 µM,"[2]; Homo sapiens, FaDu, 72 h, read-out: Fadu Cell viability (% of controll), 3.4 μM, 72 h, dose–response, individual replicates",40%
same,viability at 5.1 µM,"[2]; Homo sapiens, FaDu, 72 h, read-out: Fadu Cell viability (% of controll), 5.1 μM, 72 h, dose–response, individual replicates",39%
same,viability at 7.7 µM,"[2]; Homo sapiens, FaDu, 72 h, read-out: Fadu Cell viability (% of controll), 7.7 μM, 72 h, dose–response, individual replicates",38%
same,viability at 17.3 µM,"[2]; Homo sapiens, FaDu, 72 h, read-out: Fadu Cell viability (% of controll), 17.3 μM, 72 h, dose–response, individual replicates",33%
same,viability at 26 µM,"[2]; Homo sapiens, FaDu, 72 h, read-out: Fadu Cell viability (% of controll), 26 μM, 72 h, dose–response, individual replicates",31%
same,IC50,"[2]; Homo sapiens, FaDu, 72 h, read-out: IC50 Value ± SEM Fadu, 72 h treatment, best-fit values, n = 3",1300 ± 150 nM
same,IC50,"[2]; Homo sapiens, FaDu, read-out: Fadu IC50 values, Mean, mean of independently fitted replicate IC50 values (Supplement S.6)",1340 nM
same,IC50,"[2]; Homo sapiens, FaDu, read-out: Fadu IC50 values, individual replicates n1-n3, IC50 independently determined for each replicate measurement (Supplement S.6)",1350 nM
same,IC50,"[2]; read-out: Fadu IC50 values, individual replicates n1-n3, IC50 independently determined for each replicate measurement (Supplement S.6)",1410 nM and 1260 nM
same,"viability at 72 h, 0.6 µM",[3]; 0.6 μM,60%
same,"viability at 72 h, 1 µM",[3]; 1.0 μM,30%
same,"viability at 72 h, 1.6 µM",[3]; 1.6 μM,28%
same,"viability at 72 h, 2.5 µM",[3]; 2.5 μM,21%
same,"viability at 72 h, 4 µM",[3]; 4.0 μM,19%
same,"viability at 72 h, 6.4 µM",[3]; 6.4 μM,18%
same,"viability at 72 h, 16.25 µM",[3]; 16.25 μM,15%
same,"viability at 72 h, 26 µM",[3]; 26 μM,15%
same,HEK293T WT Cell viability (% of controll),"[4]; 0.4 μM, 72 h",105 % of controll and 96 % of controll and 95 % of controll
same,HEK293T WT Cell viability (% of controll),"[4]; 0.6 μM, 72 h",70 % of controll and 65 % of controll and 68 % of controll
same,HEK293T WT Cell viability (% of controll),"[4]; 1.0 μM, 72 h",32 % of controll and 31 % of controll
same,HEK293T WT Cell viability (% of controll),"[4]; 1.6 μM, 72 h",25 % of controll and 29 % of controll
same,HEK293T WT Cell viability (% of controll),"[4]; 2.5 μM, 72 h",19 % of controll and 22 % of controll and 23 % of controll
same,HEK293T WT Cell viability (% of controll),"[4]; 4.0 μM, 72 h",19 % of controll and 22 % of controll and 20 % of controll
same,HEK293T WT Cell viability (% of controll),"[4]; 6.4 μM, 72 h",19 % of controll and 22 % of controll and 20 % of controll
same,HEK293T WT Cell viability (% of controll),"[4]; 16.25 μM, 72 h",18 % of controll and 19 % of controll
same,HEK293T WT Cell viability (% of controll),"[4]; 26 μM, 72 h",15 % of controll and 16 % of controll and 18 % of controll
same,IC50,"[4]; Homo sapiens, HEK-293T, 72 h, read-out: IC50 (µM) HEK293T WT, 72 h treatment, ± SEM, best-fit values, n = 4",0.6 ± 0.03 µM
same,IC50,"[4]; Homo sapiens, HEK-293T, read-out: HEK293T WT IC50 values, Mean, mean of independently fitted replicate IC50 values (Supplement S.6)",0.56 µM
same,IC50,"[4]; Homo sapiens, HEK-293T, read-out: HEK293T WT IC50 values, individual replicates n1-n4, IC50 independently determined for each replicate measurement (Supplement S.6)",0.394 µM
same,IC50,"[4]; read-out: HEK293T WT IC50 values, individual replicates n1-n4, IC50 independently determined for each replicate measurement (Supplement S.6)",0.626 µM and 0.558 µM and 0.643 µM
same,viability at 72 h,[5],> 50%
